Tests used:
DU145 = DU145 scattering inhibition; settings: Homo sapiens, DU-145; DU145 cells; read-out: Potency in cell-based assays DU145 scattering inhibition
A549 = A549 wound healing inhibition; settings: Homo sapiens; A549 cells; read-out: Potency in cell-based assays A549 wound healing inhibition
VEGF receptor KDR = target: T1, VEGF receptor KDR (Homo sapiens, UniProt P35968); assay: In vitro receptor tyrosine kinase assay, VEGF receptor KDR (DELFIA); type: biochemical; settings: ATP 0.6 uM, enzyme 5 nM; read-out: Potency in enzyme assays VEGF
T1 construct: made in house; host or cells: Sf9 cells (Spodoptera frugiperda), recombinant baculovirus
T1 sequence (P35968 806-1356): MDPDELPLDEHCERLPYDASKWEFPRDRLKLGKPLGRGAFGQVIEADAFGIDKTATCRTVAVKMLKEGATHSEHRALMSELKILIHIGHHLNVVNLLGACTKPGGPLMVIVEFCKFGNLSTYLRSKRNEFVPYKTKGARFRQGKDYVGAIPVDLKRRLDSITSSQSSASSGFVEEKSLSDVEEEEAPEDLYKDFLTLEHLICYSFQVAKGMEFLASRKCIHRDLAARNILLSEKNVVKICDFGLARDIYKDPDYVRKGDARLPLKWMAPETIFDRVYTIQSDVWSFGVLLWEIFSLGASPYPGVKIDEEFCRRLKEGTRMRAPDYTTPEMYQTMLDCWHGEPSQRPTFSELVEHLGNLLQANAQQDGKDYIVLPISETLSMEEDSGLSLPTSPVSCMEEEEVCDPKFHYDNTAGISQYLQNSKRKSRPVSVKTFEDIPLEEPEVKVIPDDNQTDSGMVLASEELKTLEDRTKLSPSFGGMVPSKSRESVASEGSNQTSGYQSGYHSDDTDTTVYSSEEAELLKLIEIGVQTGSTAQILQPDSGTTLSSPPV
Description: (§1) These tests measure the ability of compounds to inhibit the enzymatic activity of recombinant human c-Met/HGF receptor and VEGF receptor enzymatic activity.
In the case of VEGF receptor KDR a 1.6-kb cDNA corresponding to the catalytic domain of VEGFR2 or KDR (Genbank accession number AF035121 amino acid 806 to 1356) is cloned into the Pst I site of the pDEST20 Gateway vector (Invitrogen) for the production of a GST-tagged version of that enzyme. This construct is used to generate recombinant baculovirus using the Bac-to-Bac system according to the manufacturer's instructions (Invitrogen).
(§2) The GST-VEGFR2806-1356 protein is expressed in Sf9 cells (Spodoptera frugiperda) upon infection with recombinant baculovirus construct. Briefly, Sf9 cells grown in suspension and maintained in serum-free medium (Sf900 II supplemented with gentamycin) at a cell density of about 2×10^6 cells/ml are infected with the above-mentioned viruses at a multiplicity of infection (MOI) of 0.1 during 72 hours at 27° C. with agitation at 120 rpm on a rotary shaker. Infected cells are harvested by centrifugation at 398 g for 15 min. Cell pellets are frozen at −80° C. until purification is performed.
All steps described in cell extraction and purification are performed at 4° C. Frozen Sf9 cell pellets infected with the GST-VEGFR2806-1356 recombinant baculovirus re thawed and gently resuspended in Buffer A (PBS pH 7.3 supplemented with 1 μg/ml pepstatin, 2 μg/ml Aprotinin and leupeptin, 50 μg/ml PMSF, 50 μg/ml TLCK and 10 μM E64 and 0.5 mM DTT) using 3 ml of buffer per gram of cells. Suspension is Dounce homogenized and 1% Triton X-100 is added to the homogenate after which it is centrifuged at 22500 g, 30 min., 4° C. The supernatant (cell extract) is used as starting material for purification of GST-VEGFR2806-1356.
The supernatant is loaded onto a GST-agarose column (Sigma) equilibrated with PBS pH 7.3. Following a four column volume (CV) wash with PBS pH 7.3+1% Triton X-100 and 4 CV wash with buffer B (50 mM Tris pH 8.0, 20% glycerol and 100 mM NaCl), bound proteins are step eluted with 5 CV of buffer B supplemented with 5 mM DTT and 15 mM glutathion. GST-VEGFR2806-1356 enriched fractions from this chromatography step are pooled based on U.V. trace i.e. fractions with high O.D^-280- Final GST-VEGFR2806-1356 protein preparations concentrations are about 0.7 mg/ml with purity approximating 70%. Purified GST-VEGFR2806-1356 protein stocks are aliquoted and frozen at −80° C. prior to use in enzymatic assay.
Inhibition of c-Met/HGF receptor and VEGFR/KDR is measured in a DELFIA™ assay (Perkin Elmer). The substrate poly(Glu4,Tyr) is immobilized onto black high-binding polystyrene 96-well plates. The coated plates are washed and stored at 4° C. During the assay, enzymes are pre-incubated with inhibitor and Mg-ATP on ice in polypropylene 96-well plates for 4 minutes, and then transferred to the coated plates. The subsequent kinase reaction takes place at 30° C. for 10-30 minutes. ATP concentrations in the assay are 10 uM for C-Met (5× the Km) and 0.6 uM for VEGFR/KDR (2× the Km). Enzyme concentration is 25 nM (C-Met) or 5 nM (VEGFR/KDR). After incubation, the kinase reactions are quenched with EDTA and the plates are washed. Phosphorylated product is detected by incubation with Europium-labeled anti-phosphotyrosine MoAb. After washing the plates, bound MoAb is detected by time-resolved fluorescence in a Gemini SpectraMax reader (Molecular Devices). Compounds are evaluated over a range of concentrations and IC50's (concentration of compounds giving 50% inhibition of enzymatic activity) are determined.

[1] = target: T2, recombinant human c-Met/HGF receptor (Homo sapiens, UniProt P08581); assay: In vitro receptor tyrosine kinase assay, c-Met (DELFIA); type: biochemical; settings: ATP 10 uM, enzyme 25 nM; read-out: Potency in enzyme assays Cmet
T2 construct: His tag; made in house; host or cells: Hi-5 cells (Trichoplusia ni), recombinant baculovirus
T2 sequence (P08581 1078-1337): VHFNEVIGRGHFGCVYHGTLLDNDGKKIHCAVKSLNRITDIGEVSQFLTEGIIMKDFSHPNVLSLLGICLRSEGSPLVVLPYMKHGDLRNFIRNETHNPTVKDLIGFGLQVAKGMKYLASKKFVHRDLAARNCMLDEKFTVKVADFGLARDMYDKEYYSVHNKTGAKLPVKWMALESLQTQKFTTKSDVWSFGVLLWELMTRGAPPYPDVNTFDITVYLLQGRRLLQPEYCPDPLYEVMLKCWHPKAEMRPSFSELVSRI
Description: as §1
A 1.3-kb cDNA corresponding to the intracellular domain of c-Met or c-Met IC (Genbank accession number NP000236-1 amino acid […]) is cloned into the BamHI/XhoI sites of the pBlueBacHis2A vector (Invitrogen) for the production of a histidine-tagged version of that enzyme. This construct is used to generate recombinant baculovirus using the Bac-N-Blue™ system according to the manufacturer's instructions (Invitrogen).
as §2, with “The c-Met IC” for “The GST-VEGFR2806-1356”, “in Hi-5” for “in Sf9”, “cells (Trichoplusia Ni)” for “cells (Spodoptera frugiperda)”, “Briefly, Hi-5” for “Briefly, Sf9”, “of 0.2” for “of 0.1”
All steps described in cell extraction and purification are performed at 4° C. Frozen Hi-5 cell pellets infected with the C-Met IC recombinant baculovirus are thawed and gently resuspended in Buffer A (20 mM Tris pH 8.0, 10% glycerol, 1 μg/ml pepstatin, 2 μg/ml Aprotinin and leupeptin, 50 μg/ml PMSF, 50 μg/ml TLCK and 10 μM E64, 0.5 mM DTT and 1 mM Levamisole) using 3 ml of buffer per gram of cells. The suspension is Dounce homogenized after which it is centrifuged at 22500 g, 30 min., 4° C. The supernatant (cell extract) is used as starting material for purification of c-Met IC.
The supernatant is loaded onto a QsepharoseFF column (Amersham Biosciences) equilibrated with Buffer B (20 mM Tris pH 8.0, 10% glycerol) supplemented with 0.05M NaCl. Following a ten column volume (CV) wash with equilibration buffer, bound proteins are eluted with a 5 CV salt linear gradient spanning from 0.05 to 1M NaCl in Buffer B. Typically, the conductivity of selected fractions rank between 6.5 and 37 mS/cm. This Qsepharose eluate has an estimated NaCl concentration of 0.33M and is supplemented with a 5M NaCl solution in order to increase NaCl concentration at 0.5M and also with a 5M Imidazole (pH 8.0) solution to achieve a final imidazole concentration of 15 mM. This material is loaded onto a HisTrap affinity column (GE Healthcare) equilibrated with Buffer C (50 mM NaPO4 pH 8.0, 0.5M NaCl, 10% glycerol) supplemented with 15 mM imidazole. After a 10 CV wash with equilibration buffer and an 8 CV wash with buffer C+40 mM imidazole, bound proteins are eluted with an 8 CV linear gradient (15 to 500 mM) of imidazole in buffer C. C-Met IC enriched fractions from this chromatography step are pooled based on SDS-PAGE analysis. This pool of enzyme undergoes buffer exchange using PD-10 column (GE Healthcare) against buffer D (25 mM HEPES pH 7.5, 0.1M NaCl, 10% glycerol and 2 mM β-mercaptoethanol). Final C-Met IC protein preparations concentrations are about 0.5 mg/ml with purity approximating 80%. Purified c-Met IC protein stocks are supplemented with BSA at 1 mg/ml, aliquoted and frozen at −80° C. prior to use in enzymatic assay.
Inhibition of c-Met/HGF receptor and VEGFR/KDR is measured in a DELFIA™ assay (Perkin Elmer). The substrate poly(Glu4,Tyr) is immobilized onto black high-binding polystyrene 96-well plates. The coated plates are washed and stored at 4° C. During the assay, enzymes are pre-incubated with inhibitor and Mg-ATP on ice in polypropylene 96-well plates for 4 minutes, and then transferred to the coated plates. The subsequent kinase reaction takes place at 30° C. for 10-30 minutes. ATP concentrations in the assay are 10 uM for C-Met (5× the Km) and 0.6 uM for VEGFR/KDR (2× the Km). Enzyme concentration is 25 nM (C-Met) or 5 nM (VEGFR/KDR). […]

| IC50 (DU145) [µM] | IC50 (A549) [µM] | IC50 (VEGF receptor KDR) [µM] | IC50 [1] [µM] | SMILES |
| --- | --- | --- | --- | --- |
| 5 to 10 | 1 to 5 | 0.25 to 0.5 | 0.25 to 0.5 | CNC(=O)c1cc(Oc2ccc(NC(=O)N3CCN(c4ccccc4)C3=O)cc2F)ccn1 [Compound 87a, 4-(2-fluoro-4-(2-oxo-3-phenylimidazolidine-1-carboxamido)phenoxy)-N-methylpicolinamide] |
| ≥ 1 | ≥ 1 | 0.25 to 0.5 | < 0.25 | O=C(Nc1cc(Oc2ccc(NC(=O)N3CCN(c4ccccc4)C3=O)cc2F)ccn1)N1CCCC1 [Compound 18a, N-(3-Fluoro-4-(2-(pyrrolidine-1-carboxamido)pyridin-4-yloxy)phenyl)-2-oxo-3-phenylimidazolidine-1-carboxamide] |
| ≥ 1 | 1 to 5 | ≥ 1 | 0.5 to 1 | CN(C)CCCNC(=O)Nc1cc(Oc2ccc(NC(=O)N3CCN(c4ccccc4)C3=O)cc2F)ccn1 [Compound 18c, N-(4-(2-(3-(3-(dimethylamino)propyl)ureido)pyridin-4-yloxy)-3-fluorophenyl)-2-oxo-3-phenylimidazolidine-1-carboxamide] |
| 5 to 10 | 5 to 10 | ≥ 1 | 0.5 to 1 | O=C(Nc1ccc(Oc2ccncc2)c(F)c1)N1CCN(c2cccc(Cl)c2)C1=O [Compound 21g, 3-(3-chlorophenyl)-N-(3-fluoro-4-(pyridin-4-yloxy)phenyl)-2-oxoimidazolidine-1-carboxamide] |
| > 10 | > 10 | ≥ 1 | 0.25 to 0.5 | CN(C)CCOC(=O)Nc1cc(Oc2ccc(NC(=O)N3CCN(c4ccccc4)C3=O)cc2F)ccn1 [Compound 18d, 2-(dimethylamino)ethyl4-(2-fluoro-4-(2-oxo-3-phenylimidazolidine-1-carboxamido)phenoxy)pyridin-2-ylcarbamate] |

The next lines start with the compound.

| SMILES | IC50 (DU145) [µM] | IC50 (A549) [µM] | IC50 (VEGF receptor KDR) [µM] | IC50 [1] [µM] |
| --- | --- | --- | --- | --- |
| O=C(Nc1ccc(Oc2cc(NC(=O)N3CCCC3)ncn2)c(F)c1)C1CCN(c2ccccc2)C1=O (centres unmarked) [Compound 9b, N-(6-(2-Fluoro-4-(2-oxo-1-phenylpyrrolidine-3-carboxamido)phenoxy)pyrimidin-4-yl)pyrrolidine-1-carboxamide] | 5 to 10 | 5 to 10 | ≥ 1 | ≥ 1 |
| O=C(Nc1ccc(Oc2ccnc(Nc3ccccc3)c2)c(F)c1)N1CCN(c2ccccc2)C1=O [Compound 70, N-(3-fluoro-4-(2-(phenylamino)pyridin-4-yloxy)phenyl)-2-oxo-3-phenylimidazolidine-1-carboxamide] | 5 to 10 | 1 to 5 | ≥ 1 | < 0.25 |
| CN(C)[C@@H]1CCN(C(=O)Nc2cc(Oc3ccc(NC(=O)N4CCN(c5ccc(F)cc5)C4=O)cc3F)ccn2)C1 [Compound 18g, (R)-N-(4-(2-(3-(dimethylamino)pyrrolidine-1-carboxamido)pyridin-4-yloxy)-3-fluorophenyl)-3-(4-fluorophenyl)-2-oxoimidazolidine-1-carboxamide] | ≥ 1 | ≥ 1 | < 0.25 | < 0.25 |
| COc1ccc(Nc2nccc(Oc3ccc(NC(=O)N4CCN(c5ccccc5)C4=O)cc3F)n2)cc1 [Compound 61b, N-(3-fluoro-4-(2-(4-methoxyphenylamino)pyrimidin-4-yloxy)phenyl)-2-oxo-3-phenylimidazolidine-1-carboxamide] | 5 to 10 | 5 to 10 | ≥ 1 | 0.5 to 1 |
| CNC(=O)c1cc(Oc2ccc(NC(=O)N3CCN(c4ccc(F)cc4)C3=O)cc2F)ccn1 [Compound 87b, 4-(2-fluoro-4-(3-(4-fluorophenyl)-2-oxoimidazolidine-1-carboxamido)phenoxy)-N-methylpicolinamide] | 1 to 5 | 1 to 5 | ≥ 1 | 0.5 to 1 |
| O=C(Nc1cc(Oc2ccc(NC(=O)N3CCN(c4ccccc4)C3=O)cc2F)ncn1)N1CCCC1 [Compound 9c, N-(3-Fluoro-4-(6-(pyrrolidine-1-carboxamido)pyrimidin-4-yloxy)phenyl)-2-oxo-3-phenylimidazolidine-1-carboxamide] | 5 to 10 | 1 to 5 | < 0.25 | < 0.25 |

— patent US20080255155A1, “KINASE INHIBITORS AND USES THEREOF” (priority 2006, published 2008)
